≈ marks a conversion by molar mass, not a printed value.
Assays:
[1] = system: Escherichia coli; test: Antibacterial activity against Escherichia coli ATCC 25922 assessed as growth inhibition after 24 hr by serial broth dilution method; assay type: functional; conditions: ATCC 25922, 24 h
[2] = system: Escherichia coli; test: microbe, parasite or virus in culture; conditions: ATCC 25922, 24 h, read-out: DIZ
Description: Antibacterial activity against Escherichia coli ATCC 25922 assessed as growth inhibition at 300 ug/ml after 24 hr by Kirby-Bauer disk diffusion method

[3] = system: Escherichia coli; test: Antibacterial activity against Escherichia coli ATCC 25922 assessed as growth inhibition at 70 ug/ml after 24 hr by Kirby-Bauer disk diffusion method; assay type: functional; conditions: ATCC 25922, 24 h, read-out: DIZ
[4] = system: Pseudomonas aeruginosa; test: Antibacterial activity against Pseudomonas aeruginosa ATCC 27853 assessed as growth inhibition after 24 hr by serial broth dilution method; assay type: functional; conditions: ATCC 27853, 24 h
[5] = system: Bacillus subtilis; test: Antibacterial activity against Bacillus subtilis ATCC 11774 assessed as growth inhibition at 300 ug/ml after 24 hr by Kirby-Bauer disk diffusion method; assay type: functional; conditions: ATCC 11774, 24 h, read-out: DIZ
[6] = system: Escherichia coli; test: microbe, parasite or virus in culture; conditions: ATCC 25922, 24 h, read-out: DIZ; remark: listed apart in the source
Description: Antibacterial activity against Escherichia coli ATCC 25922 assessed as growth inhibition at 100 ug/ml after 24 hr by Kirby-Bauer disk diffusion method

[7] = system: Candida albicans; test: Antifungal activity against Candida albicans ATCC 66027 assessed as growth inhibition at 100 ug/ml after 24 hr by Kirby-Bauer disk diffusion method; assay type: functional; conditions: ATCC 66027, 24 h, read-out: DIZ
[8] = system: Candida albicans; test: Antifungal activity against Candida albicans ATCC 66027 assessed as growth inhibition at 300 ug/ml after 24 hr by Kirby-Bauer disk diffusion method; assay type: functional; conditions: ATCC 66027, 24 h, read-out: DIZ
[9] = system: Candida albicans; test: Antifungal activity against Candida albicans ATCC 66027 assessed as growth inhibition at 20 ug/ml after 24 hr by Kirby-Bauer disk diffusion method; assay type: functional; conditions: ATCC 66027, 24 h, read-out: DIZ
[10] = system: Bacillus subtilis; test: Antibacterial activity against Bacillus subtilis ATCC 11774 assessed as initial concentration required for appearance of zone of inhibition after 24 hr; assay type: functional
[11] = system: Escherichia coli; test: Antibacterial activity against Escherichia coli ATCC 25922 assessed as initial concentration required for appearance of zone of inhibition after 24 hr; assay type: functional
[12] = system: Staphylococcus aureus; test: Antibacterial activity against Staphylococcus aureus ATCC 25923 assessed as growth inhibition after 24 hr by serial broth dilution method; assay type: functional; conditions: ATCC 25923, 24 h
[13] = system: Candida albicans; test: Antifungal activity against Candida albicans ATCC 66027 assessed as growth inhibition after 24 hr by serial broth dilution method; assay type: functional; conditions: ATCC 66027, 24 h
[14] = system: Staphylococcus aureus; test: Antibacterial activity against Staphylococcus aureus ATCC 25923 assessed as initial concentration required for appearance of zone of inhibition after 24 hr; assay type: functional
[15] = system: Pseudomonas aeruginosa; test: Antibacterial activity against Pseudomonas aeruginosa ATCC 27853 assessed as growth inhibition at 300 ug/ml after 24 hr by Kirby-Bauer disk diffusion method; assay type: functional; conditions: ATCC 27853, 24 h, read-out: DIZ
[16] = system: Bacillus subtilis; test: Antibacterial activity against Bacillus subtilis ATCC 11774 assessed as growth inhibition at 100 ug/ml after 24 hr by Kirby-Bauer disk diffusion method; assay type: functional; conditions: ATCC 11774, 24 h, read-out: DIZ
[17] = system: Staphylococcus aureus; test: Antibacterial activity against Staphylococcus aureus ATCC 25923 assessed as growth inhibition at 100 ug/ml after 24 hr by Kirby-Bauer disk diffusion method; assay type: functional; conditions: ATCC 25923, 24 h, read-out: DIZ
[18] = system: Pseudomonas aeruginosa; test: Antibacterial activity against Pseudomonas aeruginosa ATCC 27853 assessed as initial concentration required for appearance of zone of inhibition after 24 hr; assay type: functional
[19] = system: Candida albicans; test: Antifungal activity against Candida albicans ATCC 66027 assessed as initial concentration required for appearance of zone of inhibition after 24 hr; assay type: functional
[20] = system: Pseudomonas aeruginosa; test: Antibacterial activity against Pseudomonas aeruginosa ATCC 27853 assessed as growth inhibition at 100 ug/ml after 24 hr by Kirby-Bauer disk diffusion method; assay type: functional; conditions: ATCC 27853, 24 h, read-out: DIZ
[21] = system: Bacillus subtilis; test: Antibacterial activity against Bacillus subtilis ATCC 11774 assessed as growth inhibition after 24 hr by serial broth dilution method; assay type: functional; conditions: ATCC 11774, 24 h
[22] = system: Staphylococcus aureus; test: Antibacterial activity against Staphylococcus aureus ATCC 25923 assessed as growth inhibition at 300 ug/ml after 24 hr by Kirby-Bauer disk diffusion method; assay type: functional; conditions: ATCC 25923, 24 h, read-out: DIZ

CC1CCC(NC(=O)NCCn2c(-c3ccccc3)nc3ccc([N+](=O)[O-])cc3c2=O)CC1 (stereo not drawn)
MIC [1]: 40 µg/mL (≈ 89 µM)
zone of inhibition at 300 µg/mL [2]: 17 mm
zone of inhibition at 70 µg/mL [3]: 11 mm
MIC [4]: 70 µg/mL (≈ 156 µM)
zone of inhibition at 300 µg/mL [5]: 14 mm
zone of inhibition at 100 µg/mL [6]: 13 mm
zone of inhibition at 100 µg/mL [7]: 15 mm
zone of inhibition at 300 µg/mL [8]: 20 mm
zone of inhibition at 20 µg/mL [9]: 11 mm
Activity [10]: 100 µg/mL
Activity [11]: 70 µg/mL
MIC [12]: 100 µg/mL (≈ 222 µM)
MIC [13]: 10 µg/mL (≈ 22.2 µM)
Activity [14]: 100 µg/mL
zone of inhibition at 300 µg/mL [15]: 21 mm
zone of inhibition at 100 µg/mL [16]: 11 mm
zone of inhibition at 100 µg/mL [17]: 11 mm
Activity [18]: 70 µg/mL
Activity [19]: 20 µg/mL
zone of inhibition at 100 µg/mL [20]: 12 mm
MIC [21]: 100 µg/mL (≈ 222 µM)
zone of inhibition at 300 µg/mL [22]: 14 mm

O=C(NCCn1c(-c2ccccc2)nc2ccc([N+](=O)[O-])cc2c1=O)Nc1ccccc1Cl
MIC [1]: 70 µg/mL (≈ 151 µM)
zone of inhibition at 300 µg/mL [2]: 18 mm
zone of inhibition at 70 µg/mL [3]: 11 mm
MIC [4]: 100 µg/mL (≈ 216 µM)
zone of inhibition at 300 µg/mL [5]: 15 mm
zone of inhibition at 100 µg/mL [6]: 14 mm
zone of inhibition at 100 µg/mL [7]: 16 mm
zone of inhibition at 300 µg/mL [8]: 20 mm
Activity [10]: 70 µg/mL
Activity [11]: 70 µg/mL
MIC [12]: 100 µg/mL (≈ 216 µM)
MIC [13]: 20 µg/mL (≈ 43.1 µM)
Activity [14]: 100 µg/mL
zone of inhibition at 300 µg/mL [15]: 19 mm
zone of inhibition at 100 µg/mL [16]: 12 mm
zone of inhibition at 100 µg/mL [17]: 11 mm
Activity [18]: 70 µg/mL
Activity [19]: 40 µg/mL
zone of inhibition at 100 µg/mL [20]: 13 mm
MIC [21]: 70 µg/mL (≈ 151 µM)
zone of inhibition at 300 µg/mL [22]: 14 mm

— ChEMBL document CHEMBL3045273, “Synthesis, characterization, and pharmacological evaluation of 1-[2-(6-nitro-4-oxo-2-phenyl-4H-quinazolin-3-yl)-ethyl]-3-phenyl ureas” (2013)
